Test results taken from US5200505A, “R106 compounds” (Takara Shuzo Co., Ltd., priority 1990, dated 1993).
Numbered stars: 1 amine (or outer) side, 2 acyl side, 3 side chain; on linkers, the order of the positions; unused ones are H or OH. Square brackets hold non-standard residues; d marks the D form. Peptide text beside a SMILES is read from it. NMePhe(3-F) = CN[C@@H](Cc1cccc(F)c1)C(=O)O; NMePhe(2-F) = CN[C@@H](Cc1ccccc1F)C(=O)O; NMeVal(β-OH) = CN[C@H](C(=O)O)C(C)(C)O; Phe(3-F) = N[C@@H](Cc1cccc(F)c1)C(=O)O; Phe(2-F) = N[C@@H](Cc1ccccc1F)C(=O)O; NMeY = CN[C@@H](Cc1ccc(O)cc1)C(=O)O; NMeF = CN[C@@H](Cc1ccccc1)C(=O)O; aIle = CC[C@@H](C)[C@H](N)C(=O)O; X1 = CCC(C)C(O[*:1])C(=O)[*:2]; NMeV = CN[C@H](C(=O)O)C(C)C; NMeS = CN[C@@H](CO)C(=O)O; Thz = O=C(O)[C@@H]1CSCN1

test: Solubility in water; assay type: physicochemical; details: compared with antibiotics R106

SMILES	solubility in water
CCC(C)C1OC(=O)[C@H](C(C)(C)O)N(C)C(=O)[C@H](CC(C)C)NC(=O)[C@H](C(C)C)N(C)C(=O)[C@H]([C@H](C)CC)NC(=O)[C@@H]2CSCN2C(=O)[C@H](Cc2ccccc2)N(C)C(=O)[C@H](Cc2ccccc2)NC(=O)[C@H](C(C)C)N(C)C1=O (stereo partly drawn) [Compound 5] (cyclo(F[NMeF][Thz][aIle][NMeV]L[NMeVal(β-OH)][X1][NMeV]))	higher
CCC(C)C1OC(=O)[C@H](C(C)(C)O)N(C)C(=O)[C@H](CC(C)C)NC(=O)[C@H](C(C)C)N(C)C(=O)[C@H]([C@H](C)CC)NC(=O)[C@@H]2CCCN2C(=O)[C@H](CO)N(C)C(=O)[C@H](Cc2ccccc2)NC(=O)[C@H](C(C)C)N(C)C1=O (stereo partly drawn) [Compound 9] (cyclo(F[NMeS]P[aIle][NMeV]L[NMeVal(β-OH)][X1][NMeV]))	higher
CCC(C)C1OC(=O)[C@H](C(C)(C)O)N(C)C(=O)[C@H](CC(C)C)NC(=O)[C@H](C(C)C)N(C)C(=O)[C@H]([C@H](C)CC)NC(=O)[C@@H]2CCCN2C(=O)[C@H](Cc2ccc(O)cc2)N(C)C(=O)[C@H](Cc2ccc(O)cc2)NC(=O)[C@H](C(C)C)N(C)C1=O (stereo partly drawn) [Compound 3] (cyclo(L[NMeVal(β-OH)][X1][NMeV]Y[NMeY]P[aIle][NMeV]))	higher
CCC(C)C1OC(=O)[C@H](C(C)(C)O)N(C)C(=O)[C@H](CC(C)C)NC(=O)[C@H](C(C)C)N(C)C(=O)[C@H]([C@H](C)CC)NC(=O)[C@@H]2CCCN2C(=O)[C@H](Cc2ccccc2F)N(C)C(=O)[C@H](Cc2ccccc2F)NC(=O)[C@H](C(C)C)N(C)C1=O (stereo partly drawn) [Compound 1] (cyclo(L[NMeVal(β-OH)][X1][NMeV][Phe(2-F)][NMePhe(2-F)]P[aIle][NMeV]))	higher
CCC(C)C1OC(=O)[C@H](C(C)(C)O)N(C)C(=O)[C@H](CC(C)C)NC(=O)[C@H](C(C)C)N(C)C(=O)[C@H]([C@H](C)CC)NC(=O)[C@@H]2CCCN2C(=O)[C@H](Cc2cccc(F)c2)N(C)C(=O)[C@H](Cc2cccc(F)c2)NC(=O)[C@H](C(C)C)N(C)C1=O (stereo partly drawn) [Compound 2] (cyclo(L[NMeVal(β-OH)][X1][NMeV][Phe(3-F)][NMePhe(3-F)]P[aIle][NMeV]))	higher
